# Laboratory results as given in patent US20050239813A1, “Pharmaceutical compositions comprising fk506 derivatives and their use for the treatment of allergic diseases” (Sucampo Pharmaceuticals Inc., priority 2002, published 2005).
# Test system: Human patients with a history of allergy
# Assay: Allergen challenge of human patients after FK506 eye drops; ocular itching score
# Format: in vivo
# Protocol: Human patients with a history of allergy were divided into 5 groups and treated in one eye with eye drop (placebo, 0.01% FK506, 0.03% FK506, 0.06% FK506 or 0.1% FK506), and the other eye with placebo. Each eye drop was administered 4 times per day for seven days and 16 hours after the final instillation, patients were administered allergen-containing eye drops at a concentration predetermined to cause a reaction in the patient. The one hundred patients having a baseline itching score of at lease 3, on a scale of 0 to 4, with 4 being most severe, were evaluated.
smiles,measurement,setting,value
"C=CC[C@@H]1/C=C(\C)C[C@H](C)C[C@H](OC)[C@H]2O[C@@](O)(C(=O)C(=O)N3CCCC[C@H]3C(=O)O[C@H](/C(C)=C/[C@@H]3CC[C@@H](O)[C@H](OC)C3)[C@H](C)[C@@H](O)CC1=O)[C@H](C)C[C@@H]2OC [FK506, 17-allyl-1,14-dihydroxy-12-[2-(4-hydroxy-3-methoxycyclohexyl)-1-methylvinyl]-23,25-dimethoxy-13,19,21,27-tetramethyl-11,28-dioxa-4-azatricyclo[22.3.1.0^4,9]octacos-18-ene-2,3,10,16-tetraone]",decrease from baseline itching score versus placebo,"3 minutes post challenge, all concentrations (0.01%, 0.03%, 0.06%, 0.1% eye drops), 4 times per day for seven days, challenge 16 hours after final instillation",statistically significant versus placebo
same,decrease from baseline itching score: dose response,"eye drops 0.01%, 0.03%, 0.06% or 0.1% FK506, 4 times per day for seven days, allergen challenge 16 hours after final instillation, itching scale 0 to 4, FIG. 1",pronounced dose response
